Calls of active or inactive are those of the source.

Test [1] can be described thus: T. cruzi growth inhibition in host cells, dose response, cell-based, plate reader, dry powder, set 2 (AID 652275). The class given is functional.
Test [2] can be described thus: mouse embryonic fibroblast toxicity – cell-based, plate reader, dry powder, set 2, cytotoxicity control, dose response (AID 652280). The format is functional. The note with it: NIH3T3.
Test [3] can be described thus: P. falciparum Dd2 growth inhibitors, dose response, SYBR Green, cherry-picked samples (AID 1159567). The format is functional, cell-based.
Test [4] concerns the target T1, Corticotropin-releasing factor receptor 2/Corticotropin-releasing factor-binding protein (Homo sapiens, UniProt P24387+Q13324).
T1 sequence (Q13324 whole entry): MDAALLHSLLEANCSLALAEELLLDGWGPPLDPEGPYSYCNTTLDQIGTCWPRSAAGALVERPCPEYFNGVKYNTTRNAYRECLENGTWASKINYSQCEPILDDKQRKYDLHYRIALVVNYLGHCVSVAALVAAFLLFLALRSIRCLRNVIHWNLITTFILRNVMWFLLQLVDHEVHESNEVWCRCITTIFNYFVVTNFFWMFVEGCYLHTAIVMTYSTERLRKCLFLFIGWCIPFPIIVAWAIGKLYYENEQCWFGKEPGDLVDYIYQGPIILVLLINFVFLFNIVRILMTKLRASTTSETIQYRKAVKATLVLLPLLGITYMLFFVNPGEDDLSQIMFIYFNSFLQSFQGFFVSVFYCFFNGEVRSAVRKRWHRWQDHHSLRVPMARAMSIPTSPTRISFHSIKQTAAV
T1 sequence (P24387 whole entry): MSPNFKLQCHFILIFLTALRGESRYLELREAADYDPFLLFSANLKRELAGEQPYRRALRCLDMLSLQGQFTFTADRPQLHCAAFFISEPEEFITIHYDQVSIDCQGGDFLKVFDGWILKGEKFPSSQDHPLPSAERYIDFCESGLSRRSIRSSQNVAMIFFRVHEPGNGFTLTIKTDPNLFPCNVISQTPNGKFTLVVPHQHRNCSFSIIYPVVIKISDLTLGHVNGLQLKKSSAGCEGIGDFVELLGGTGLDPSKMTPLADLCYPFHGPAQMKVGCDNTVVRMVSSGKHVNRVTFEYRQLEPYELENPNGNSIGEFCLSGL
The test can be described thus: activators of CRF receptor 2 with binding protein – uHTS hits, confirmation (AID 602473). The class given is functional. The settings on record: read-out: EC50_Mean.

The target of test [5] is T1, Corticotropin-releasing factor receptor 2/Corticotropin-releasing factor-binding protein. Briefly: Dose Response confirmation of uHTS hits for small molecule antagonists of the CRF-binding protein and CRF-R2 receptor complex. The class given is functional. The note with it: read-out: IC50_Mean.
Test [6] is described as follows: blockers of CRF-binding protein–CRF-R2 complex – cell-based, uHTS hits, 384-well, dose response (AID 651639). The format is functional, Homo sapiens. The settings on record: read-out: IC50_Mean.
Another test deals with INS1. The test can be described thus: INS-1E survival protection against cytokine death – cell-based, luminescence, retest, dose response (AID 449756).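 Further: cell death triggered by IL-1 beta plus TNF-alpha plus IFN-gamma mixture; protective hits raise ATP signal compared with cytokine alone wells.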 The class given is functional. The settings on record: Rattus norvegicus.
The target of another test is Beta-galactosidase (Escherichia coli, UniProt Q8VNN2). The test can be described thus: Dose response counterscreen for EBI2 assay utilizing the enzyme, b-galactosidase. The class given is functional.
Sequence of Beta-galactosidase (Q8VNN2 whole entry): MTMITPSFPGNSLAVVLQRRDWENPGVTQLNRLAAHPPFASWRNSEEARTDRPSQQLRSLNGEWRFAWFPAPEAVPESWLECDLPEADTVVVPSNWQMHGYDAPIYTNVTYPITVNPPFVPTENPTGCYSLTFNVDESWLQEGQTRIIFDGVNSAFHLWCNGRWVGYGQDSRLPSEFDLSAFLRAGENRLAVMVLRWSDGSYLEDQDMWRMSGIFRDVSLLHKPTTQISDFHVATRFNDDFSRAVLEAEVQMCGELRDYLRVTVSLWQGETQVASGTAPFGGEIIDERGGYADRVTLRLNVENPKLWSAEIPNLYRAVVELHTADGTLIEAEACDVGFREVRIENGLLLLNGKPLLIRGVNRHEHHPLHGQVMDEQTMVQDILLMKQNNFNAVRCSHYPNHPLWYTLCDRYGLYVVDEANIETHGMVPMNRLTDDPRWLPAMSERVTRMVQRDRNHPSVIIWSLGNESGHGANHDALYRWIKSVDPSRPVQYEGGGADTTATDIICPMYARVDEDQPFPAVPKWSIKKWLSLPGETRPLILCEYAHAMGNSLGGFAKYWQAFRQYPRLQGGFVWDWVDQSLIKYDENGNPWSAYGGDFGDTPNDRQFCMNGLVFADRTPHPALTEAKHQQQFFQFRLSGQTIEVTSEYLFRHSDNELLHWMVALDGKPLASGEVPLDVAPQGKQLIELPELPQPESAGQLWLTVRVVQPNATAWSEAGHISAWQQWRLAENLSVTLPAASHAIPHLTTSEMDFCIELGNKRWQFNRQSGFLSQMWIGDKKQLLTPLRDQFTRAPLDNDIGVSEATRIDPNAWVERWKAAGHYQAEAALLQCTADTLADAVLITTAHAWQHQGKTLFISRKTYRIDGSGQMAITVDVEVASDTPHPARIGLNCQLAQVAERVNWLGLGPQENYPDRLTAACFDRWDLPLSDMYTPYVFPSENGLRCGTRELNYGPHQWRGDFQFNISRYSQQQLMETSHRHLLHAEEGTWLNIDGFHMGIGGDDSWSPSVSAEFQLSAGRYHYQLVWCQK
A short description of test [7]: blockers of bursicon-stimulated LGR2 cAMP reporter – cell-based, HEK293, CRE-luciferase reporter, cherry pick, set 2, dose response (AID 743343).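 Further: transfected cells were stimulated with diluted bursicon conditioned medium after compound addition.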 The class given is functional. Background: A reporter such as luciferase makes a cellular process visible.
A short description of test [8]: toxicity toward HepG2 liver cells – cell-based, plate reader, cherry-pick, antagonist series, cytotoxicity control, dose response (AID 743416). The format is functional.
The nature of test [9]: viability loss in HEK293 cells – cell-based, plate reader, cherry-picked samples, cytotoxicity control, dose response (AID 743446). The class given is functional.
Test [10] can be described thus: viability loss in HepG2 hepatoma cells – cell-based, ATP luminescence, cherry-pick, activator set 2, cytotoxicity control, dose response (AID 1053143). The class given is functional.
Test [11] can be described thus: A549 cell cytotoxicity, dose response, cytotoxicity control, plate reader, cherry-pick, antagonist series (AID 743412). The class given is functional, cell-based.
The nature of test [12]: blockade of melanocortin 4 receptor signaling – cell-based, plate reader, cherry pick, counter-screen for LGR2 antagonist project, dose response (AID 743444).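 Further: transfected HEK 293 cells stimulated with alpha-MSH peptide; potency of inhibitors of the alpha-MSH evoked signal.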 The class given is functional.
Test [13] concerns the target ADP-ribosylation factor GTPase-activating protein 1 (Rattus norvegicus, UniProt Q62848). The test can be described thus: Fluorescence polarization-based biochemical high throughput dose response screening assay to identify inhibitors of ADP-ribosylation factor GTPase activating protein 1 (ARFGAP1). The class given is functional. On the technique in general: In fluorescence polarisation assays a small probe gives low polarisation when free and higher when bound to something large.

Test [14] concerns the target Arf-GAP with SH3 domain, ANK repeat and PH domain-containing protein 1 (Homo sapiens, UniProt Q9ULH1). The class given is functional.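 Further: biochemical fluorescence polarization dose–response screen measuring inhibition of ASAP1; ASAP1 GAP domain stimulating GTP hydrolysis by truncated human ARF1.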
For the next test, the system named is A549. The test can be described thus: viability loss in A549 cells – cell-based, plate reader, cherry-pick samples, cytotoxicity control, dose response (AID 687028). The settings on record: Homo sapiens. The class given is functional.
The nature of test [15]: PAX8-dependent cell viability loss – plate reader, dry powder, dose response (AID 743049). The format is functional, cell-based.
Test [16] can be described thus: COV434 cell viability loss – plate reader, dry powder, SA7, cytotoxicity control for PAX8 inhibitor project, dose response (AID 743145). The format is functional, cell-based.
The nature of test [17]: OV-90 cell viability loss – plate reader, dry powder, SA8, PAX8 inhibitor project, dose response (AID 743149). The format is functional, cell-based.
Test [18] can be described thus: OVCAR-3 cell viability loss – plate reader, dry powder samples, PAX8 inhibitor project, dose response (AID 743044). The format is functional, cell-based.
The nature of test [19]: COV362 cell viability loss – plate reader, dry powder, SA12, cytotoxicity control for PAX8 inhibitor project, dose response (AID 743144). The class given is functional, cell-based.
The nature of test [20]: IGROV1 cell killing – plate reader, dry powder samples, PAX8 inhibitor project, dose response (AID 743043). The class given is functional, cell-based. The settings on record: IGROV-1.
For a further test, the target named is Paired box protein Pax-8 (Homo sapiens, UniProt Q06710). The test can be described thus: PAX8 transcriptional activity inhibition in RMG-I – RMG-I cells, luciferase, cherry-pick, dose response (AID 687027).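 Further: luciferase reporter driven by Pax8 target thyroperoxidase promoter measured by SteadyGlo luminescence.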 The format is functional, cell-based.
Sequence of Paired box protein Pax-8 (Q06710 whole entry): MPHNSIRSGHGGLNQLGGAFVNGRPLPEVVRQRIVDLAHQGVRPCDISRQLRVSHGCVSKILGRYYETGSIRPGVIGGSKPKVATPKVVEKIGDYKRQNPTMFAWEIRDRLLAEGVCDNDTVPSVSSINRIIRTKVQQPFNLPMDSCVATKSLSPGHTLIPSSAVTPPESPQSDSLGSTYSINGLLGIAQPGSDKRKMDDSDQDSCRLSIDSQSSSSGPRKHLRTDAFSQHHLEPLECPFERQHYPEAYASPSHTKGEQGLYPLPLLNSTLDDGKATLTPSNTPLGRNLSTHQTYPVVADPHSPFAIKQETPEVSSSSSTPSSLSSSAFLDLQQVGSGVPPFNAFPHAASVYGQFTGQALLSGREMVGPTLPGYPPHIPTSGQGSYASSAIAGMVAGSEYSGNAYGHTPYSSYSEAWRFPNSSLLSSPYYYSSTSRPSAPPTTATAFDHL
Test [21] is described as follows: PAX5 cellular inhibition readout – cell-based, plate reader, dry powder samples, selectivity assay for PAX8 inhibitor project, dose response (AID 743047).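 Further: HEK293 cells carrying a Pax5 driven CD19 promoter luciferase reporter; potency of inhibitors that lower reporter luminescence.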 The class given is functional.
Test [22] can be described thus: inhibitors acting on PAX2 in cells – cell-based, plate reader, dry powder samples, selectivity assay for PAX8 inhibitor project, dose response (AID 743048).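 Further: HEK293 cells carrying a WT1 promoter luciferase reporter driven by expressed Pax2; potency is for inhibition of Pax2 driven reporter signal.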 The class given is functional.
Test [23] can be described thus: OVCAR4 cell viability loss – plate reader, dry powder, SA11, cytotoxicity control for PAX8 inhibitor project, dose response (AID 743150). The settings on record: OVCAR-4. The class given is functional, cell-based.
The test system of the next test is HEK293. Briefly: viability loss in HEK293T cells – cell-based, ATP luminescence, cherry-pick samples, cytotoxicity control, dose response (AID 687005).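 Further: cells exposed to compound for 48 hours.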 The note with it: Homo sapiens. The format is functional.
The nature of test [24]: HEK293 Cytotoxicity Assay Measured in Cell-Based System Using Plate Reader - 7071-01_Inhibitor_Dose_CherryPick_Activity_Set2. The format is functional.

Sequence of ADP-ribosylation factor GTPase-activating protein 1 (Q62848 whole entry): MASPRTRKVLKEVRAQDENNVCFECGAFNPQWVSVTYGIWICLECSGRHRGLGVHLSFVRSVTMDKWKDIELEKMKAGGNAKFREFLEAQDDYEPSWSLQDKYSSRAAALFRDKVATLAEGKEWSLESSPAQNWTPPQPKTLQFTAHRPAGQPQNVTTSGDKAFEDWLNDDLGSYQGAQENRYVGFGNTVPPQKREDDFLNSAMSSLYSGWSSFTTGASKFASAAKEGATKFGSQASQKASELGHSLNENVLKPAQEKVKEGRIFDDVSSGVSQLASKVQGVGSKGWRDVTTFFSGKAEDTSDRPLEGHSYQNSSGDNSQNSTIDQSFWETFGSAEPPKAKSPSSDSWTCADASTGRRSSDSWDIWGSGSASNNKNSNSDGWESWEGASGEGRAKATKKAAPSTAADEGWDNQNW
Sequence of Arf-GAP with SH3 domain, ANK repeat and PH domain-containing protein 1 (Q9ULH1 whole entry, the tested form may be a part): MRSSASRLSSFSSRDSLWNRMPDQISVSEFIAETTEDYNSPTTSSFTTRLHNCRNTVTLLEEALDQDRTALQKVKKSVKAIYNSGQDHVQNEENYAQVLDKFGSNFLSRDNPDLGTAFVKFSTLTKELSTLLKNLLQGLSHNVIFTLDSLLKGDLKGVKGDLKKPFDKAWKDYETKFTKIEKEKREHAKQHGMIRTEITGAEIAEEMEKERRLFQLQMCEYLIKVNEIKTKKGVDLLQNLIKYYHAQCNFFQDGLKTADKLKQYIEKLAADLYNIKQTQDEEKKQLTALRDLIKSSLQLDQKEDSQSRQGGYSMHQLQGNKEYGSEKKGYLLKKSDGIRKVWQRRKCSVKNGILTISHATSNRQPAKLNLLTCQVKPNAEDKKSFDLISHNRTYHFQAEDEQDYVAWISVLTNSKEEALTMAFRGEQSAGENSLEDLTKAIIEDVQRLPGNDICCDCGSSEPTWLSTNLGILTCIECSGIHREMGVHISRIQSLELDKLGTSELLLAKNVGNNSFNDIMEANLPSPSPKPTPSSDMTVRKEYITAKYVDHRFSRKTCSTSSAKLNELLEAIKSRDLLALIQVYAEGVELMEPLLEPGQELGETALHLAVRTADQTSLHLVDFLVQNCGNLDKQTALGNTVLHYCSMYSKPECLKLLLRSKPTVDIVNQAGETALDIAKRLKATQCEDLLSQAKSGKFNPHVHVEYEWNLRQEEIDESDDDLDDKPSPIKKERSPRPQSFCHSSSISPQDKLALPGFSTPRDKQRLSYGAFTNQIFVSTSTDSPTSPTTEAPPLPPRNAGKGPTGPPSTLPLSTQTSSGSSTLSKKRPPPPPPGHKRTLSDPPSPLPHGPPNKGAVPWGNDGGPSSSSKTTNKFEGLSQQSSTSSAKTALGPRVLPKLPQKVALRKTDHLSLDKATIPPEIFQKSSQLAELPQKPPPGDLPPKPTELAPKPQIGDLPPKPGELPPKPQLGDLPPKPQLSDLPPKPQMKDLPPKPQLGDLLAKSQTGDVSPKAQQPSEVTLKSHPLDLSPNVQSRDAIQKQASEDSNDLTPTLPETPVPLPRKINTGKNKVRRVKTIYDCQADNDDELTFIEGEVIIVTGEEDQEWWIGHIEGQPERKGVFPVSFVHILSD

By AC50 is commonly meant the concentration at which the activity in the assay is half-maximal. For the compound `CN(C)CC#Cc1cccc(-c2nc(C(=O)N[C@@H]3CCN(Cc4ccccc4)C3)cc3c2[C@H](CCO)N([S+]([O-])C(C)(C)C)C3)c1` (some centres undefined), the AC50 in test [1] was 0.58 µM (active); in test [2] it was 5.14 µM (active); in test [3], 2.71 µM (active).
In the case of `O=S(=O)(Nc1nc2ccccc2s1)c1ccc(Cl)s1`, the EC50 in test [4] was > 53 µM (inactive). The IC50 is 6.02 µM (active) in test [5] and 8.22 µM (active) in test [6]. In addition, the AC50 in the test on INS1 was 31.8 µM (active).
Take `CCOC(=O)c1ccc(S(=O)(=O)N2CCN(C(=O)c3cc4ccccc4o3)CC2)cc1`: the IC50 on Beta-galactosidase was > 80 µM (inactive).
Take `O=C(Nc1nc2cc3c(cc2s1)OCCO3)c1cccs1`: the AC50 in test [7] is 2.01 µM (active); in test [8] it was > 52 µM (inactive); in [9], > 52 µM (inactive); in test [10] it was 26 µM (active); in [11], 28 µM (active); in test [12] it was 3.84 µM (active).
With `Cc1ccc2nc(SCC(=O)N3CCC(Cc4ccccc4)CC3)nc(=O)n2c1`, the IC50 in test [13] is 26.9 µM (inactive); in test [14] it was 32.7 µM (inactive).
For `C[C@@H]1CCCCO[C@H](CN(C)C(=O)Nc2ccc(C(F)(F)F)cc2)[C@H](C)CN([C@@H](C)CO)C(=O)c2cc(NS(=O)(=O)c3ccc(F)cc3)ccc2O1`, in the test with A549, the AC50 is 28.1 µM (active).
On to `COc1ccc(S(=O)(=O)Nc2ccc3c(c2)C(=O)N([C@@H](C)CO)C[C@H](C)[C@H](CN(C)Cc2ccc(C(F)(F)F)cc2)OCCCC[C@H](C)O3)cc1`, for which the AC50 was 24.2 µM (active) in test [15]; 26.5 µM (active) in test [16]; 21.9 µM (active) in [17]; 17.1 µM (active) in test [18]; 38.3 µM (active) in test [19]; 34.5 µM (active) in [20]. For the same compound, the AC50 was 5.59 µM (active) on Paired box protein Pax-8, 19.6 µM (active) in test [21], 15.5 µM (active) in test [22] and 33.6 µM (active) in [23].
Turning to `O=C(c1cccc(Br)c1)N1CCN(c2ccccn2)CC1`, the AC50 (in the test on HEK293; in test [24]) was > 52 µM (inactive) throughout.

Source of the values: ChEMBL document CHEMBL1201862, “PubChem BioAssay data set” (2004).
